The source made the active and inactive calls. The rule behind the calls is not given here.
Legend:
[1] = Cytotoxicity against human Hep2 cells incubated for 3 days by MTT assay; assay type: functional, cell-based; settings: HEp-2, 72 h
[2] = test system: HepG2; test: Cytotoxicity against human HepG2 cells incubated for 3 days by MTT assay; assay type: functional, cell-based; settings: HepG2, 72 h
[3] = test system: A549; test: Cytotoxicity against human A549 cells incubated for 3 days by MTT assay; assay type: functional, cell-based; settings: A549, 72 h
[4] = test system: MCF7; test: Cytotoxicity against human MCF7 incubated for 3 days by MTT assay; assay type: functional, cell-based; settings: MCF7, 72 h
[5] = test system: Neutrophil; test: Anti-inflammatory activity in human neutrophils assessed as inhibition of fMLP/CB-induced elastase release incubated for 5 mins followed by fMLP/CB stimulation using MeO-Suc-Ala-Ala-Pro-Val-p-nitroanilide substrate; assay type: functional, cell-based
[6] = Anti-inflammatory activity in human neutrophils assessed as inhibition of fMLP/CB-induced superoxide anion generation incubated for 5 mins followed by fMLP/CB stimulation for 10 mins by spectrophotometry; assay type: functional, cell-based, Neutrophil
[7] = Anti-inflammatory activity in human neutrophils assessed as inhibition of fMLP/CB-induced elastase release at 28.6 uM incubated for 5 mins followed by fMLP/CB stimulation using MeO-Suc-Ala-Ala-Pro-Val-p-nitroanilide substrate; assay type: functional; settings: Neutrophil

IC50 ([6]; neutrophil)	IC50 ([6]; Homo sapiens, Neutrophil, read-out: IC50) [µM]	SMILES	IC50 [1] [µM]	IC50 [2] [µM]	IC50 [3] [µM]	IC50 [4] [µM]	inhibition [5]	inhibition at 28.6 µM [7] [%]
Not Active	–	C[C@@H]1CC[C@@]2(O)[C@@H](C[C@@H](O)C2(C)C)C(=O)[C@@]1(C)CCC1=CC(=O)OC1	> 10	> 10	> 10	> 10	inactive	–
–	21.5	C[C@@H]1CC[C@]2(O)[C@H](C[C@@H](O)C2(C)C)C(=O)[C@@]1(C)CCC1=CC(=O)OC1	> 10	> 10	> 10	> 10	–	35.9
Not Active	–	C[C@@H]1C[C@H]2C(=O)C(C)(C)[C@H](O)CC[C@]2(O)[C@@]1(C)CCC1=CC(=O)OC1	> 10	> 10	> 10	> 10	inactive	–
Not Active	–	C[C@@H]1C[C@H]2C(=O)C(C)(C)[C@H](OC=O)CC[C@]2(O)[C@@]1(C)CCC1=CC(=O)OC1	> 10	> 10	> 10	> 10	inactive	–

Source: ChEMBL document CHEMBL3593230, “Randainins A-D, Based on Unique Diterpenoid Architectures, from Callicarpa randaiensis” (J Nat Prod, 2015)
